Target: T1, Active human recombinant ROCK II (N-terminal His6-tagged recombinant human ROCK-II residues 11-552) (Homo sapiens, UniProt O75116)
T1 construct: recombinant human ROCK-II residues 11-552; His6 (N); purchased Upstate Ltd., Dundee, UK
Assay: Determination of Rho-kinase activity (Rho-kinase inhibition, Caliper peptide phosphorylation assay)
Format: biochemical
Conditions: Fluorescein-AKRRRLSSLRA-COOH peptide substrate and ATP, 60 min incubation at 32° C., tested as the form (salt or free base) obtained in the examples, read-out: pIC50 (negative decadal logarithm of the IC50), Rho-kinase inhibition (converted)
Experimental: Determination of Rho-Kinase Activity
To measure Rho-kinase inhibition, IC50 values were determined according to the following protocol:
Active human recombinant ROCK II (N-terminal His6-tagged recombinant human ROCK-II residues 11-552) was purchased from Upstate Ltd., Dundee, UK. The peptide substrate, Fluorescein-AKRRRLSSLRA-COOH, was obtained from JPT Peptide Technologies, Berlin, Germany. Adenosine-5′-triphosphate (ATP), bovine serum albumine (BSA), dimethylsulphoxide (DMSO), 4-(2-Hydroxyethyl)piperazine-1-ethanesulfonic acid (Hepes), Brij-35 and dithiothreitol (DTT) were purchased from Sigma-Aldrich, Munich, Germany. Tris(hydroxymethyl)-aminomethane (Tris), magnesium chloride, NaOH, 1M HCl and EDTA were obtained from Merck Biosciences, Darmstadt, Germany. “Complete” protease inhibitor was from Roche Diagnostics, Mannheim, Germany.
Test compounds were diluted to the appropriate concentrations in buffer 1 (25 mM Tris-HCl, pH 7.4, 5 mM MgCl2, 2 mM DTT, 0.02% (w/v) BSA and 3% DMSO). The ROCK II enzyme was diluted to a concentration of 100 ng/ml in buffer 2 (25 mM Tris-HCl, pH 7.4, 5 mM MgCl2, 2 mM DTT and 0.02% (w/v) BSA). The peptide substrate and ATP were diluted to concentrations of 3 μM and 120 μM, respectively, in the buffer 2. Two μl of the compound solution were mixed with 2 μl of the diluted enzyme in a 384-well small volume microtiter plate (Greiner, Bio-One, Frickenhausen, Germany), and the kinase reaction was initiated by addition of 2 μl of the solution containing peptide substrate and ATP. After 60 min incubation at 32° C., the reaction was stopped by addition of 20 μl of a solution containing 100 mM Hepes-NaOH, pH 7.4, 0.015% (v/v) Brij-35, 45 mM EDTA and 0.227% chip coating reagent 1 (Caliper Lifescience Inc, Hopkinton, Mass.). Phosphorylation of the substrate peptide was then detected on a Caliper 3000 instrument essentially as described by Pommereau et al (J. Biomol. Screening 9(5), 409-416, 2004). Separation conditions were as follows: Pressure −1.3 psi, upstream voltage −1562 V, downstream voltage −500 V, sample sip time 200 ms. Positive controls (buffer 1 instead of compound) and negative controls (buffer 1 instead of compound and buffer 2 instead of ROCK II) were run in parallel on each plate.
The following products/compounds were tested in said assay by using the respective form (salt or free base) obtained as in the examples described above and the following activities were measured.

T1 sequence (O75116 11-552): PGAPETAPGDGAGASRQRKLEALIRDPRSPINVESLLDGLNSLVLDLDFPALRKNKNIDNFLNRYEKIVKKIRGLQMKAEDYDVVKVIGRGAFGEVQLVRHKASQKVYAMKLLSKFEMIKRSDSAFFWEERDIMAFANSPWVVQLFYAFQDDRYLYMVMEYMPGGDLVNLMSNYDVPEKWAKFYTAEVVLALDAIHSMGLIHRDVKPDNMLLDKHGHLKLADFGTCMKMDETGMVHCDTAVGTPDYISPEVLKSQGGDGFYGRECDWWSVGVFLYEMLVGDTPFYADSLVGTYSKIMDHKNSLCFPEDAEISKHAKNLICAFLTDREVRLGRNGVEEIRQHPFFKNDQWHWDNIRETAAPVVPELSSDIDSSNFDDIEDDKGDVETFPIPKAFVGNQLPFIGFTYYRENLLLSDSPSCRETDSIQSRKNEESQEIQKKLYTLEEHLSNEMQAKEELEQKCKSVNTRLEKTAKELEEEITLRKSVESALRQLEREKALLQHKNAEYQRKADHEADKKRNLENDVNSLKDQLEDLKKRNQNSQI

IC50 | SMILES
1000 to 10000 nM | COCCNC(=O)[C@H]1CNC[C@@H]1Nc1ccc2cnccc2c1 [Compound 49, (3S,4R)-4-(Isoquinolin-6-ylamino)-pyrrolidine-3-carboxylic acid (2-methoxy-ethyl)-amide]
≤ 1000 nM | Cc1ccccc1NC(=O)[C@H]1CNC[C@@H]1Nc1ccc2cnccc2c1 [Compound 50, (3S,4R)-4-(Isoquinolin-6-ylamino)-pyrrolidine-3-carboxylic acid o-tolylamide]
1000 to 10000 nM | O=c1[nH]ccc2cc(OC3(c4ccccc4)CCN(Cc4ccccc4)CC3)c(Cl)cc12 [Compound 69, 6-(1-Benzyl-4-phenyl-piperidin-4-yloxy)-7-chloro-2H-isoquinolin-1-one]
≤ 1000 nM | Cc1cc2c(=O)[nH]ccc2cc1O[C@H]1C[C@H]2CC[C@@H](C1)N2C [Compound 76, 7-Methyl-6-(8-methyl-8-aza-bicyclo[3.2.1]oct-3-yloxy)-2H-isoquinolin-1-one]

More lines, now with the values behind:

SMILES | IC50
O=C(NCCc1ccccc1)[C@@H]1C[C@@H](Oc2ccc3cnccc3c2)CCN1 [Compound 21, (2S,4S)-4-(Isoquinolin-6-yloxy)-piperidine-2-carboxylic acid phenethyl-amide] | 1000 to 10000 nM
O=C(NCc1ccccc1Cl)[C@@H]1C[C@@H](Oc2ccc3cnccc3c2)CCN1 [Compound 22, (2S,4S)-4-(Isoquinolin-6-yloxy)-piperidine-2-carboxylic acid 2-chloro-benzylamide] | ≤ 1000 nM
O=C(NCCO)[C@@H]1C[C@@H](Oc2ccc3cnccc3c2)CN1 [Compound 27, (2S,4R)-4-(Isoquinolin-6-yloxy)-pyrrolidine-2-carboxylic acid (2-hydroxy-ethyl)-amide] | 1000 to 10000 nM
C#CCNC(=O)[C@@H]1C[C@@H](Oc2ccc3cnccc3c2)CN1 [Compound 31, (2S,4R)-4-(Isoquinolin-6-yloxy)-pyrrolidine-2-carboxylic acid prop-2-ynylamide] | ≤ 1000 nM
O=C(NCc1ccco1)[C@@H]1C[C@H](Nc2ccc3cnccc3c2)CN1 [Compound 41, (2S,4S)-4-(Isoquinolin-6-ylamino)-pyrrolidine-2-carboxylic acid (furan-2-ylmethyl)-amide] | 1000 to 10000 nM
O=C(NCCc1ccccc1)[C@@H]1C[C@H](Nc2ccc3cnccc3c2)CN1 [Compound 45, (2S,4S)-4-(Isoquinolin-6-ylamino)-pyrrolidine-2-carboxylic acid phenethyl-amide] | ≤ 1000 nM
COc1cccc(CNC(=O)[C@H]2CNC[C@@H]2Nc2ccc3cnccc3c2)c1 [Compound 48, (3S,4R)-4-(Isoquinolin-6-ylamino)-pyrrolidine-3-carboxylic acid 3-methoxy-benzylamide] | ≤ 1000 nM
CN1[C@@H]2CC[C@H]1C[C@@H](Oc1cc3cc[nH]c(=O)c3cc1Cl)C2 [Compound 75, 7-Chloro-6-(8-methyl-8-aza-bicyclo[3.2.1]oct-3-yloxy)-2H-isoquinolin-1-one] | ≤ 1000 nM

Reference: US8772492B2, “Substituted isoquinoline and isoquinolinone derivatives” (Sanofi, priority 2006, dated 2014)
